Test results from publication PMC8019873, “Histone Deacetylase Inhibitory and Cytotoxic Activities of the Constituents from the Roots of Sophora Pachycarpa” (Iranian Journal of Pharmaceutical Research : IJPR, 2020).

Legend:
HeLa cells = experiment: AlamarBlue cytotoxic assay, HeLa; format: cell-based; conditions: human cervical HeLa cells, 48 h, read-out: Cytotoxicity IC50 HeLa
Method: (§1) The cells were seeded in 96-well microplates (1 × 10^4 cells/100 µL in each well) and cultivated for 24 h before the addition of test compounds. Three wells for each concentration were seeded and triplicate plates were used. […] Then, the cells were incubated with the different concentrations of the test compounds, positive control and cell culture medium alone as a negative control for 48 h. After that, 10 μL of alamarBlue® reagent was added to the attached cells and incubated for another four hour. The absorbance was measured at 600 nm using an ELISA microplate reader (Epoch; Bio Tek, Winooski, VT, USA), and the percent viability of the cells was investigated relative to the negative control that was exposed to the culture medium without compounds of the plant. Then, IC50 values were calculated by nonlinear regression analysis using GraphPad Prism (Version 6.0) software.

HCT116 cells = experiment: AlamarBlue cytotoxic assay, HCT116; format: cell-based; conditions: HCT-116, human colon cancer HCT116 cells, 48 h, read-out: Cytotoxicity IC50 HCT116
Method: as §1

A2780 cells = experiment: AlamarBlue cytotoxic assay, A2780; format: cell-based; conditions: Homo sapiens, ovarian cancer A2780 cells, 48 h, read-out: Cytotoxicity IC50 A2780
Method: as §1

A549 cells = experiment: AlamarBlue cytotoxic assay, A549; format: cell-based; conditions: Homo sapiens, lung A549 cells, 48 h, read-out: Cytotoxicity IC50 A549
Method: as §1

HDAC [1] = experiment: Whole-cell HDAC inhibition assay in HeLa cells; format: cell-based, human; conditions: 18 h, Boc-Lys(ε-Ac)-AMC substrate
Method: (§2) The cellular HDAC assay was based on an assay published by Marek et al. ([16]). HCT116 and HeLa human cancer cell lines were seeded in 96-well tissue culture microplates (1.5 × 10^4 cells/90 µL culture medium in each well). […] The test compounds were dissolved in dimethyl sulfoxide (the final amount of DMSO/well was maintained at 0.1% V/V) and their concentrations adjusted to 70, 40, 20, 5, 1 μM through dilution with the growth medium. The reaction was started by adding 10 µL of 3 mM Boc-Lys (ε-Ac)-AMC (Bachem, Switzerland) to each well at a final concentration of 0.3 mM. The cells were incubated with the Boc-Lys (ε-Ac)-AMC for 3 h under cell culture conditions. […] The final volume of the assay is 210 µL in all the wells. After that, the solution was transferred into a black 96-well microplate with flat clear bottom and fluorescence intensity was detected at an excitation of 360 nm and emission of 470 nm in a NOVO star microplate reader (BMGLabTech, Offenburg, Germany).

HDAC [2] = experiment: Whole-cell HDAC inhibition assay in HCT116 cells; format: cell-based, human; conditions: HCT116, 18 h, Boc-Lys(ε-Ac)-AMC substrate
Method: as §2

[3] = tested on: A2780, A549, HeLa, and HCT116 human cancer cell lines; experiment: AlamarBlue cytotoxic assay, range over four cancer cell lines; format: cell-based; conditions: read-out: Cytotoxicity IC50 range against four cancer cell lines
Method: Compounds 1-5 were tested against HeLa, HCT116, A2780and A549 human cancer cell lines using a nonfluorescent substrate, AlamarBlue® (BioSource Invitrogen, Paisely, UK) and subjected to cell viability assay as described with some modification ([15]). The cell lines were cultured in RPMI-1640 medium (Cambrex Bioscience) supplemented with 10% fetal bovine serum (FBS), and 1% penicillin/streptomycin at 37 °C in an atmosphere of 95% […] and 5% CO2. The cells were seeded in 96-well microplates (1 × 10^4 cells/100 µL in each well) and cultivated for 24 h before the addition of test compounds. Three wells for each concentration were seeded and triplicate plates were used. The test compounds were dissolved in dimethyl sulfoxide (the final amount of DMSO per well was maintained at 0.1%V/V) and their concentrations adjusted to 100, 50, 25, 12.5, 6.25 μM through dilution with the growth medium. […] The absorbance was measured at 600 nm using an ELISA microplate reader (Epoch; Bio Tek, Winooski, VT, USA), and the percent viability of the cells was investigated relative to the negative control that was exposed to the culture medium without compounds of the plant. Then, IC50 values were calculated by nonlinear regression analysis using GraphPad Prism (Version 6.0) software.

pan-HDAC = experiment: Whole-cell pan-HDAC inhibition, range over HCT116 and HeLa cells; format: cell-based, human; conditions: read-out: pan-HDAC inhibitory activity IC50 range
Method: as §2

Structure (SMILES)	IC50 (HeLa cells) [µM]	IC50 (HCT116 cells) [µM]	IC50 (A2780 cells) [µM]	IC50 (A549 cells) [µM]	IC50 (HDAC [1]) [µM]	IC50 (HDAC [2]) [µM]	IC50 [3] [µM]	IC50 (pan-HDAC) [µM]
COc1c(C2COc3cc(O)c(CC=C(C)C)c(O)c3C2=O)ccc(O)c1CC=C(C)C (centres unmarked) [Compound 1, isosophoranone]	43.2	39.3	49.3	53.5	34.7	26.5	–	–
C=C(C)[C@H](CC=C(C)C)Cc1c(O)cc(O)c2c1O[C@H](c1ccc(O)cc1O)CC2=O [Compound 2, sophoraflavanone G]	44.2	54.4	65.5	72.5	> 70	> 70	–	–
Oc1ccc(C2Oc3cc(O)cc(O)c3C2O)cc1 (centres unmarked) [Compound 3, 2-(4-hydroxyphenyl)-2,3-dihydrobenzo[b]furan-3,4,6-triol]	69.4	54	> 100	76.5	> 70	> 70	–	–
C=C(C)C(CC=C(C)C)Cc1c2c(c(O)c3c1OC(c1ccc(O)cc1)C3c1cc(O)cc(O)c1)C(=O)CC(c1ccc(O)cc1O)O2 (centres unmarked) [Compound 4, alopecurone J]	9.97	18	21.9	30.9	3.85	0.08	9.97 to 30.9	0.08 to 3.85
CC(C)=CCc1c2c(c(O)c3c1O[C@@H](c1ccc(O)cc1)[C@@H]3c1cc(O)cc(O)c1)C(=O)C[C@@H](c1ccc(O)cc1O)O2 [Compound 5, alopecurone P]	52.6	48.4	69	54.9	24.9	22.2	–	–
